Assay results published in patent US20180042918A1, “RESPIRATORY INFECTION TREATING AGENT” (KYORIN PHARMACEUTICAL CO., LTD., priority 2015, published 2018).
Converted amounts (≈) assume the structure as drawn. Where two headings read alike, the source gives them in different places.

What was measured:
S. aureus ATCC29213 = assay: MIC of strain used for resistance frequency test; format: cell-based; settings: Staphylococcus aureus; S. aureus ATCC29213; read-out: MIC
S. pneumoniae NF9884 = assay: microbe, parasite or virus in culture; format: cell-based; settings: Streptococcus pneumoniae
S. pneumoniae ST9941 = assay: microbe, parasite or virus in culture; format: cell-based; settings: Streptococcus pneumoniae
E. coli ATCC25922 = assay: microbe, parasite or virus in culture; format: cell-based; settings: Escherichia coli
S. pneumoniae SF9863 = assay: microbe, parasite or virus in culture; format: cell-based; settings: Streptococcus pneumoniae
S. pneumoniae ATCC49619 [1] = assay: Frequency of development of resistant bacteria; format: cell-based, Streptococcus pneumoniae; settings: for FREQUENCY OF DEVELOPMENT OF RESISTANT BACTERIA (AVERAGE OF TWO MEASURED VALUES): about 70 hours
Description: S. aureus ATCC29213 is Staphylococcus aureus, S. pneumoniae ATCC49619 is Streptococcus pneumoniae, and E. coli ATCC25922 is Escherichia coli. […]
The frequency of development of resistant bacteria was calculated by dividing the number of colonies developed on an agar medium having each drug concentration by the number of initially inoculated bacteria.

[2] = test system: PCG-LOW SENSITIVE S. pneumoniae (22 STRAINS); assay: Antibacterial activity against clinically isolated strains, MIC90; format: cell-based; settings: Streptococcus pneumoniae, 22 clinically isolated strains
Description: (§1) The antibacterial activities in vitro of the compound D, garenoxacin, and levofloxacin against each clinically isolated strain of Streptococcus pneumoniae, Moraxella catarrhalis, and Haemophilus influenzae were measured in accordance with a CLSI microdilution method or a CLSI agar dilution method. A MIC90 value was the minimum concentration in which the growth of 90% strain of all the measured strains was inhibited.

[3] = test system: M. catarrhalis (26 STRAINS); assay: as above; format: cell-based; settings: Moraxella catarrhalis, 26 clinically isolated strains
Description: as §1

[4] = test system: H. influenzaes (26 STRAINS); assay: as above; format: cell-based; settings: Haemophilus influenzae, 26 clinically isolated strains
Description: as §1

PSSP (26 STRAINS) = assay: as above; format: cell-based; settings: Streptococcus pneumoniae, 26 clinically isolated strains
Description: as §1

S. pneumoniae IID553 = assay: microbe, parasite or virus in culture; format: cell-based; settings: Streptococcus pneumoniae
S. aureus MS5935 3rd = assay: microbe, parasite or virus in culture; format: cell-based; settings: Staphylococcus aureus, MS59353RD
S. aureus MS5935 = assay: Antibacterial activity against quinolone-resistant strain in vitro, CLSI dilution; format: cell-based; settings: Staphylococcus aureus; S. aureus MS5935, PARENT STRAIN, gyrA None, grlA None
[5] = test system: S. aureus MS5935 gyrA mutant; assay: microbe, parasite or virus in culture; format: cell-based; settings: Staphylococcus aureus
[6] = target: QUINOLONE RESISTANT DNA gyrase (quinolone-resistant S. aureus) (Staphylococcus aureus, UniProt P20831); assay: Enzyme inhibitory activity, supercoiling of relaxed pBR322; format: biochemical
Description: (§2) Agents Chemother. 45: 3544-3547 (2001). […] The measurement was performed in the same manner as in Test Example 3. Similarly, the inhibitory activities of ciproxacin, levofloxacin, and garenoxacin were measured. The results were compared.

[7] = target: DNA gyrase derived from S. aureus (Staphylococcus aureus, UniProt P0A0K8+P20831); assay: as above; format: biochemical
Description: as §2

S. pneumoniae GF9821 = assay: microbe, parasite or virus in culture; format: cell-based; settings: Streptococcus pneumoniae
[8] = target: Topoisomerase IV (S. pneumoniae IID553) (Streptococcus pneumoniae serotype 4, UniProt P72525+Q59961); assay: Enzyme inhibitory activity, decatenation of kinetoplast DNA
S. aureus MS5935 4th = assay: microbe, parasite or virus in culture; format: cell-based; settings: for MIC: Staphylococcus aureus, MS59354TH
S. pneumoniae CF9842 = assay: microbe, parasite or virus in culture; format: cell-based; settings: Streptococcus pneumoniae
[9] = target: DNA gyrase derived from S. pneumoniae IID553 (Streptococcus pneumoniae serotype 4, UniProt P0A4L9+P72524); assay: Enzyme inhibitory activity, supercoiling of relaxed pBR322
S. aureus MS5935 2nd = assay: microbe, parasite or virus in culture; format: cell-based; settings: Staphylococcus aureus, MS59352ND
S. pneumoniae KY-9 = assay: Number of bacteria in the lung, mouse lung infection; format: in vivo, Streptococcus pneumoniae
Description: S. pneumoniae KY-9 was inoculated at 7.4×10^5 CFU/mouse via the respiratory tract into the lung in a mouse in which cyclophosphamide had been administrated. 2.9 to 3.1 hours, 17.3 to 19.1 hours, and 24.4 to 26.1 hours after the inoculation, the drug (the compound D, levofloxacin, or garenoxacin) was subcutaneously administrated (SC) or orally administrated (PO) three times in total. The number of bacteria in the lung 16.5 to 17.0 hours after the final administration was measured.
“*” described in FIGS. 1 and 2 means that a significant difference of p<0.05 in a Vehicle group was observed, and “**” means that a significant difference of p<0.001 in the Vehicle group was observed (Dunnett's multiple comparison test, parametric).
Here, CFU is an abbreviation of Colony Forming Unit, and represents the unit of number of bacteria. Log CFU/Lung means the number of viable bacteria in the lung. Log CFU/Lung was determined as follows. The lung obtained from the mouse was homogenated to obtain a bacterial culture. The bacterial culture was appropriately diluted, applied to an agar plate medium, and cultured. Log CFU/Lung was determined on the basis of the number of developed colonies.

S. pneumoniae ATCC49619 [10] = assay: microbe, parasite or virus in culture; format: cell-based; settings: Streptococcus pneumoniae
[11] = S. pneumoniae ATCC49619, 4 × MIC
[12] = S. pneumoniae ATCC49619, 8 × MIC
[13] = S. pneumoniae ATCC49619, 16 × MIC

SMILES	MIC (S. aureus ATCC29213)	MIC (S. pneumoniae NF9884)	MIC (S. pneumoniae ST9941)	MIC (E. coli ATCC25922)	MIC (S. pneumoniae SF9863)	FREQUENCY OF DEVELOPMENT OF RESISTANT BACTERIA (AVERAGE OF TWO MEASURED VALUES) (S. pneumoniae ATCC49619 [1]; [11])	FREQUENCY OF DEVELOPMENT OF RESISTANT BACTERIA (AVERAGE OF TWO MEASURED VALUES) (S. pneumoniae ATCC49619 [1]; [12])	FREQUENCY OF DEVELOPMENT OF RESISTANT BACTERIA (AVERAGE OF TWO MEASURED VALUES) (S. pneumoniae ATCC49619 [1]; [13])	MIC90 [2]	MIC90 [3]	MIC90 [4]	MIC90 (PSSP (26 STRAINS))	MIC (S. pneumoniae IID553)	MIC (S. aureus MS5935 3rd)	MIC (S. aureus MS5935)	MIC [5]	MIC (S. pneumoniae GF9821)	IC50 [8]	MIC (S. aureus MS5935 4th)	MIC (S. pneumoniae CF9842)	other results
C[C@H]1NCc2cc(-c3ccc4c(=O)c(C(=O)O)cn(C5CC5)c4c3OC(F)F)ccc21 [GRNX, garenoxacin]	0.015 µg/mL	0.125 µg/mL (≈ 0.293 µM)	2 µg/mL (≈ 4.69 µM)	0.03 µg/mL (≈ 0.0704 µM)	0.25 µg/mL (≈ 0.586 µM)	<1.1 × 10^−8	<1.1 × 10^−8	<1.1 × 10^−8	0.06 µg/mL (≈ 0.141 µM)	0.015 µg/mL (≈ 0.0352 µM)	0.015 µg/mL (≈ 0.0352 µM)	0.06 µg/mL (≈ 0.141 µM)	0.06 µg/mL (≈ 0.141 µM)	8 µg/mL (≈ 18.8 µM)	0.015 µg/mL (≈ 0.0352 µM)	0.06 µg/mL (≈ 0.141 µM)	0.25 µg/mL (≈ 0.586 µM)	5.16 µM	32 µg/mL (≈ 75 µM)	0.125 µg/mL (≈ 0.293 µM)	IC50 ([6]; average of three or average ± SD, read-out: IC50 VALUE, QUINOLONE RESISTANT DNA gyrase (converted)): 985 µM; IC50 ([7]; S. aureus enzyme, average of three or average ± SD, read-out: IC50 VALUE, DNA gyrase (converted)): 25.8 µM; IC50 [9]: 84.4 µM; MIC (S. aureus MS5935 2nd): 2 µg/mL (≈ 4.69 µM); significant decrease in number of bacteria in the lung versus Vehicle (S. pneumoniae KY-9; subcutaneous, 6.3 mg/kg): not observed; significant decrease in number of bacteria in the lung versus Vehicle (S. pneumoniae KY-9; subcutaneous, 25 mg/kg): a significant decrease in number of bacteria in the lung was observed; MIC (S. pneumoniae ATCC49619 [10]): 0.06 µg/mL (≈ 0.141 µM)
COc1c(N2C[C@H](CNC3CC3)[C@H](F)C2)c(F)cc2c(=O)c(C(=O)O)cn(CCF)c12.Cl [Compound D, 7-[(3S,4S)-3-{(cyclopropylamino)methyl}-4-fluoropyrrolidine-1-yl]-6-fluoro-1-(2-fluoroethyl)-8-methoxy-4-oxo-1,4-dihydroquinoline-3-carboxylic acid hydrochloride]	0.008 µg/mL	0.125 µg/mL	0.5 µg/mL	0.06 µg/mL	0.06 µg/mL	<1.1 × 10^−8	<1.1 × 10^−8	<1.1 × 10^−8	0.06 µg/mL	0.06 µg/mL	0.06 µg/mL	0.06 µg/mL	0.06 µg/mL	0.5 µg/mL	0.015 µg/mL	0.03 µg/mL	0.125 µg/mL	2.73 µM	2 µg/mL	0.06 µg/mL	development of resistant bacteria (in words) (S. pneumoniae ATCC49619 [1]; S. pneumoniae ATCC49619, 4 to 16 × MIC): not observed; IC50 ([6]; read-out: IC50 VALUE, QUINOLONE RESISTANT DNA gyrase, average of three or average ± SD): 35.7 µM; IC50 [7]: 3.57 µM; potency (action strength) relative to the other quinolone compounds (S. aureus MS5935 4th; 4th step quadruple mutant S. aureus, from MIC): ≥ 16 times; IC50 [9]: 12.6 µM; MIC (S. aureus MS5935 2nd): 0.125 µg/mL; therapeutic effect, number of bacteria in the lung (S. pneumoniae KY-9; oral administration): excellent as compared with garenoxacin and levofloxacin; decrease in number of bacteria in the lung versus Vehicle (S. pneumoniae KY-9; subcutaneous, 6.3 mg and 25 mg/kg): significant dose-dependent decrease; difference in number of viable bacteria in the lung, compound D versus garenoxacin (S. pneumoniae KY-9; subcutaneous, 25 mg/kg groups): about 1,000 times; MIC (S. pneumoniae ATCC49619 [10]): 0.06 µg/mL
